{
  "source": "patent US20080319017A2",
  "about": "“Non-Anilinic Derivatives of Isothiazol-3(2H)-Thione 1,1-Dioxides As Liver X Receptor Modulators” (ASTRAZENECA AB, priority 2005, published 2008)",
  "target": "T1, human LXRalpha (Homo sapiens, UniProt Q13133)",
  "T1 construct": "human LXRalpha (amino acid 205-447); expressed in transfected cells; host or cells: U2/OS osteosarcoma cells, electroporated with pSGGAL-LXRalpha (pSG5 backbone)",
  "T1 sequence (Q13133 205-447)": "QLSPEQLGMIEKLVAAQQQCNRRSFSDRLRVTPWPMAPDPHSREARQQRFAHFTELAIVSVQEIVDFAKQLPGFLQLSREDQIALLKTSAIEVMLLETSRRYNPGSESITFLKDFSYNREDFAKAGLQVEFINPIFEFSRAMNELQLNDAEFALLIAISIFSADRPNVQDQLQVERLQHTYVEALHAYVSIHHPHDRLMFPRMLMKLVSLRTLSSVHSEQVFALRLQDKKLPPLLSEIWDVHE",
  "assay": "Transactivation assay (reporter gene assay), GAL4-LXRalpha LBD luciferase in U2/OS cells",
  "type": "cell-based",
  "conditions": "U2/OS osteosarcoma cells, 48 h incubation, read-out: EC50 for LXRα in the reporter gene assay",
  "procedure": "Expression vectors were prepared by inserting the ligand binding domain cDNA (complementary DNA) of human LXRalpha (amino acid 205-447) and LXRbeta (amino acid 216-461) in frame with, 3′ to the yeast GAL4 transcription factor DNA binding domain and the nuclear localization signal from the T-antigen of Polyoma Virus in the eucaryotic expression vector pSG5 (Stratagene). The resulting expression vectors pSGGAL-LXRalpha and pSGGAL-LXRbeta were used in cotransfection experiments together with the pGL3 luciferase reporter plasmid containing a minimal SV40 promoter (Promega) and five copies of the UAS GAL4 recognition site. 2.5 μg pSGGAL-LXRalpha or beta were mixed with 25 μg pGL3 5×UAS and 22.5 μg pBluscript (Stratagene) in 0.95 mL ice cold PBS containing approx. 4-9 milj. U2/OS osteosarcoma cells. After a five minute incubation on ice the cell/DNA mixture was electroporated in 0.4 cm cuvettes at 960 μF, 230 V using a BioRad electroporator and diluted to 0.32 milj cells/mL in complete DMEM [Dulbecco's Modified Eagle Medium w/o phenol red, (Gibco 11880-028) including 10% FBS (Foetal Bovine Serum), 1% PEST (Penicillin Streptomycin), 20 mM Hepes, 2 mM L-Glutamine and 0.36% Glucose Gibco 31966-021] medium. […] Luciferase activity was measured as Luminescence in the Wallac Victor reader after 15 min. incubation at room temperature. […]",
  "data": [
    {"smiles": "CC(C)N1C(=S)C(NC2CCN(c3ncc(C(F)(F)F)cc3Cl)CC2)=C(c2ccccc2)S1(=O)=O", "note": "[Example 1, 4-({1-[3-Chloro-5-(trifluoromethyl)pyridin-2-yl]piperidin-4-yl}amino)-2-isopropyl-5-phenylisothiazole-3(2H)-thione 1,1-dioxide]", "values": [
      {"measurement": "EC50", "result": 3.1, "unit": "µM"}
    ]},
    {"smiles": "CC(C)N1C(=S)C(NCCCCc2ccccc2)=C(c2ccccc2)S1(=O)=O", "note": "[Example 2, 2-Isopropyl-5-phenyl-4-[(4-phenylbutyl)amino]isothiazole-3(2H)-thione 1,1-dioxide]", "values": [
      {"measurement": "EC50", "result": 10.5, "unit": "µM"}
    ]}
  ]
}
